Experimental data taken from patent US10654884B2 (Vitae Pharmaceuticals, Inc., priority 2014, dated 2020).

Tests used:
human CD73 = target: T1, human CD73 (Homo sapiens, UniProt P21589); assay: Inhibition of 5′-Nucleotidase Activity of CD73 (Assay 1); assay type: biochemical; conditions: human CD73 4 ng/ml, 50 μM CMP, 20 min at RT, malachite green readout; read-out: Assay 1: IC50, inhibition of 5′-nucleotidase activity of CD73
T1 construct: purchased R&D Systems 5795-EN-010
T1 sequence (P21589 27-549): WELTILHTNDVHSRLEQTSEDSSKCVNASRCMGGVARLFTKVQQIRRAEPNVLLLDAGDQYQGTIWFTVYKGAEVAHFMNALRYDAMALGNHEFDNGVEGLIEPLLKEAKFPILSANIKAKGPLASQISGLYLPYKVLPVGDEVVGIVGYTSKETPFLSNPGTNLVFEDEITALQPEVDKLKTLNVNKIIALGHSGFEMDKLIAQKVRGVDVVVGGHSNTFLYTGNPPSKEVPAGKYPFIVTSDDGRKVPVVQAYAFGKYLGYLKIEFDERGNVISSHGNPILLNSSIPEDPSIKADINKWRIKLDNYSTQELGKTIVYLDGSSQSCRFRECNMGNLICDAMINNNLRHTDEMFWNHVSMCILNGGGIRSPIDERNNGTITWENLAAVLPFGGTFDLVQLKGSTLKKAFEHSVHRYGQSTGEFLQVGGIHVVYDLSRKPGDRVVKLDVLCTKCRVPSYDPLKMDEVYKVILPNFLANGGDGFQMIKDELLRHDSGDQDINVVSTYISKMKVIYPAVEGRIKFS
Protocol: Inhibition of 5′-Nucleotidase Activity of CD73 (Assay 1)
Compounds of the present invention were tested for the ability to inhibit CD73 enzyme activity. Tested compounds were dissolved in DMSO (50× final concentration), and 3.2 μL of the solutions added to 96-well polystyrene plates. To these wells were added, 100 μL of human CD73 (R&D Systems Cat. No. 5795-EN-010) and 57 μL of cytidine-5′-monophosphate (CMP) solutions in assay buffer (25 mM Tris-HCl, pH 7.4, 0.005% Brij-35) were added to achieve final concentrations in the assay of 4 ng/ml CD73 and 50 μM of CMP. The assay mixture was incubated for 20 min at RT. The reaction was stopped by addition of 40 μL of malachite green reagent which was prepared by mixing together 10 ml 2M H2SO4, 2.5 ml of 15% ammonium molybdate and 0.2 ml of 11% Tween-20. The mixture was agitated vigorously for 10 min at RT, and absorbance at 620 nm was determined on a microplate spectrophotometer. […] The IC50 values were derived using a non-linear 4 parameter logistic model (XLFit software, IDBS) and correspond to the inflection points on dose-response curves.

[1] = target: T2, CD73 on U138 neuroglioma cells (Homo sapiens, UniProt P21589); assay: Inhibition of Ecto-5′-Nucleotidase Activity in U138 Neuroglioma Cells (Assay 2); assay type: cell-based; conditions: 50 μM CMP, 2 hr at 37° C., malachite green readout, read-out: Assay 2: IC50, inhibition of ecto-5′-nucleotidase activity in U138 neuroglioma cells
T2 construct: U138 neuroglioma cells, which express CD73 on their surface; endogenous in cells; host or cells: U138 neuroglioma cells (ATCC)
T2 sequence (P21589 27-549): T1 sequence (P21589 27-549)
Protocol: Inhibition of Ecto-5′-Nucleotidase Activity in U138 Neuroglioma Cells (Assay 2)
U138 cells were obtained from the American Type Culture Collection (ATCC) (Manassas, Va.), and cultured in complete growth media (DMEM, 10% FBS, 1 mM L-glutamine, 100 U penicillin-streptomycin) at 37° C., 5% CO2. The day before the experiment, cells were seeded at 2,500 cells/well in 100 μL of complete media into 96-well plates. Cells were washed twice with 200 μL of assay buffer (20 mM HEPES, pH 7.4, 137 mM NaCl, 5.4 mM KCl, 1.3 mM CaCl2, 4.2 mM NaHCO3, 1 mg/mL glucose) to remove residual inorganic phosphate. After washing, assays contained serial dilutions of test compounds and 50 μM of cytidine-5′-monophosphate (CMP) in a total volume of 200 μL of assay buffer, with a final DMSO concentration ≤0.1%. After 2 hr at 37° C., 5% CO2, 100 μL of supernatant was removed from the cells and the concentration of inorganic phosphate was determined using malachite green reagent. IC50 values for test compounds were determined from nonlinear regression fits of the data using XLfit (IDBS).

Row | IC50 (human CD73) [nM] | IC50 [1] [nM] | SMILES
1 | < 100 | < 100 | CCOC(=O)[C@@H](OC[C@H]1O[C@@H](n2cnc3c(NC4CCCC4)nc(Cl)nc32)[C@H](O)[C@@H]1O)P(=O)(O)O (single isomer, unassigned) [Example 25a]
2 | < 100 | < 100 | CCOC(=O)[C@H](OC[C@H]1O[C@@H](n2cnc3c(-n4ccnc4)nc(Cl)nc32)[C@H](O)[C@@H]1O)P(=O)(O)O (single isomer, unassigned) [Example 26]
3 | 100 to 1000 | 100 to 1000 | CCOC(=O)[C@@H](OC[C@H]1O[C@@H](n2cnc3c(-n4ccnc4)nc(Cl)nc32)[C@H](O)[C@@H]1O)P(=O)(O)O (single isomer, unassigned) [Example 26a]
4 | < 100 | 100 to 1000 | CCOC(=O)[C@H](OC[C@H]1O[C@@H](n2cnc3c(OCC)nc(Cl)nc32)[C@H](O)[C@@H]1O)P(=O)(O)O (single isomer, unassigned) [Example 27]
5 | 100 to 1000 | 100 to 1000 | CCOC(=O)[C@@H](OC[C@H]1O[C@@H](n2cnc3c(OCC)nc(Cl)nc32)[C@H](O)[C@@H]1O)P(=O)(O)O (single isomer, unassigned) [Example 27a]
6 | < 100 | < 100 | CCOC(=O)[C@H](OC[C@H]1O[C@@H](n2cnc3c(C)nc(Cl)nc32)[C@H](O)[C@@H]1O)P(=O)(O)O (single isomer, unassigned) [Example 28]
7 | 100 to 1000 | > 1000 | CCOC(=O)[C@@H](OC[C@H]1O[C@@H](n2cnc3c(C)nc(Cl)nc32)[C@H](O)[C@@H]1O)P(=O)(O)O (single isomer, unassigned) [Example 28a]
8 | 100 to 1000 | > 1000 | CCOC(=O)[C@H](OC[C@H]1O[C@@H](n2ccc(=O)n(C)c2=O)[C@H](O)[C@@H]1O)P(=O)(O)O (single isomer, unassigned) [Example 30]
9 | < 100 | 100 to 1000 | CCNC(=O)[C@H](OC[C@H]1O[C@@H](n2cnc3c(NCC)nc(Cl)nc32)[C@H](O)[C@@H]1O)P(=O)(O)O (single isomer, unassigned) [Example 34]
10 | < 100 | < 100 | CCNC(=O)[C@@H](OC[C@H]1O[C@@H](n2cnc3c(NCC)nc(Cl)nc32)[C@H](O)[C@@H]1O)P(=O)(O)O (single isomer, unassigned) [Example 34a]
11 | < 100 | 100 to 1000 | CCOC(=O)[C@H](OC[C@H]1O[C@@H](n2cnc3c(NC(=O)c4ccccc4)nc(Cl)nc32)[C@H](O)[C@@H]1O)P(=O)(O)O (single isomer, unassigned) [Example 36]
12 | 100 to 1000 | > 1000 | CCOC(=O)[C@@H](OC[C@H]1O[C@@H](n2cnc3c(NC(=O)c4ccccc4)nc(Cl)nc32)[C@H](O)[C@@H]1O)P(=O)(O)O (single isomer, unassigned) [Example 36a]
13 | < 100 | 100 to 1000 | CCOC(=O)[C@H](OC[C@@H]1O[C@H](n2cnc3c(N)nc(C)nc32)[C@@H](O)[C@H]1O)P(=O)(O)O (single isomer, unassigned) [Example 37]
14 | < 100 | 100 to 1000 | CCOC(=O)[C@H](OC[C@H]1O[C@@H](n2cnc3c(N)nc(Cc4ccccc4)nc32)[C@H](O)[C@@H]1O)P(=O)(O)O (single isomer, unassigned) [Example 39]
15 | > 1000 | > 1000 | CCOC(=O)[C@@H](OC[C@H]1O[C@@H](n2cnc3c(N)nc(Cc4ccccc4)nc32)[C@H](O)[C@@H]1O)P(=O)(O)O (single isomer, unassigned) [Example 39a]
16 | < 100 | 100 to 1000 | CCOC(=O)[C@H](OC[C@H]1O[C@@H](n2cnc3c(N)nc(-c4ccccc4)nc32)[C@H](O)[C@@H]1O)P(=O)(O)O (single isomer, unassigned) [Example 40]

Row | IC50 (human CD73) [nM] | IC50 [1] [nM] | SMILES
17 | 100 to 1000 | > 1000 | CCOC(=O)[C@H](OC[C@H]1O[C@@H](n2cnc3c(N)nc(-c4cc(F)cc(F)c4)nc32)[C@H](O)[C@@H]1O)P(=O)(O)O (single isomer, unassigned) [Example 41]
18 | < 100 | 100 to 1000 | CCOC(=O)[C@H](OC[C@H]1O[C@@H](n2cnc3c(N)nc(C(F)(F)F)nc32)[C@H](O)[C@@H]1O)P(=O)(O)O (single isomer, unassigned) [Example 42]
19 | > 1000 | > 1000 | CCOC(=O)[C@H](OC[C@H]1O[C@@H](n2cnc3c(N)nc(SCC)nc32)[C@H](O)[C@@H]1O)P(=O)(O)O (single isomer, unassigned) [Example 44]
20 | < 100 | < 100 | CCOC(=O)[C@H](OC[C@H]1O[C@@H](n2cnc3c(N)nc(C#N)nc32)[C@H](O)[C@@H]1O)P(=O)(O)O (single isomer, unassigned) [Example 45]
21 | 100 to 1000 | 100 to 1000 | CCOC(=O)[C@@H](OC[C@H]1O[C@@H](n2cnc3c(N)nc(C#N)nc32)[C@H](O)[C@@H]1O)P(=O)(O)O (single isomer, unassigned) [Example 45a]
22 | 100 to 1000 | 100 to 1000 | CCOC(=O)[C@H](OC[C@H]1O[C@@H](n2cnc3c(N)nc(CC(C)C)nc32)[C@H](O)[C@@H]1O)P(=O)(O)O (single isomer, unassigned) [Example 46]
23 | < 100 | 100 to 1000 | CCOC(=O)[C@H](OC[C@H]1O[C@@H](n2cnc3c(N)nc(-c4ncco4)nc32)[C@H](O)[C@@H]1O)P(=O)(O)O (single isomer, unassigned) [Example 49]
24 | 100 to 1000 | > 1000 | CCOC(=O)[C@@H](OC[C@H]1O[C@@H](n2cnc3c(N)nc(-c4ncco4)nc32)[C@H](O)[C@@H]1O)P(=O)(O)O (single isomer, unassigned) [Example 49a]
25 | 100 to 1000 | > 1000 | CCOC(=O)[C@H](OC[C@H]1O[C@@H](n2cnc3c(N)nc(C4CC4)nc32)[C@H](O)[C@@H]1O)P(=O)(O)O (single isomer, unassigned) [Example 50]
26 | 100 to 1000 | > 1000 | CCOC(=O)[C@H](OC[C@H]1O[C@@H](n2cnc3c(N)nc([C@@H]4NCCO4)nc32)[C@H](O)[C@@H]1O)P(=O)(O)O (single isomer, unassigned) [Example 51]
27 | 100 to 1000 | > 1000 | CCOC(=O)[C@H](OC[C@H]1O[C@@H](n2cnc3c(N)nc([C@H]4NCCO4)nc32)[C@H](O)[C@@H]1O)P(=O)(O)O (single isomer, unassigned) [Example 51a]
28 | < 100 | 100 to 1000 | CCOC(=O)[C@@H](OC[C@H]1O[C@@H](n2cnc3c(N)nc(F)nc32)[C@H](O)[C@@H]1O)P(=O)(O)O (single isomer, unassigned) [Example 52]
29 | 100 to 1000 | > 1000 | CCOC(=O)[C@H](OC[C@H]1O[C@@H](n2cnc3c(N)nc(F)nc32)[C@H](O)[C@@H]1O)P(=O)(O)O (single isomer, unassigned) [Example 52a]
30 | < 100 | < 100 | CC(C)(C)OC(=O)[C@H](OC[C@H]1O[C@@H](n2cnc3c(N)nc(C#N)nc32)[C@H](O)[C@@H]1O)P(=O)(O)O (single isomer, unassigned) [Example 54]
31 | < 100 | 100 to 1000 | CC(C)(C)OC(=O)[C@@H](OC[C@H]1O[C@@H](n2cnc3c(N)nc(C#N)nc32)[C@H](O)[C@@H]1O)P(=O)(O)O (single isomer, unassigned) [Example 54b]
